In US20080280761A1 (priority 2005, published 2008):
Read-outs that look alike come from different tables or passages of the source.

Legend:
[1] = test system: weeds; settings: in vivo; cited from earlier work
[2] = test system: main weeds in the cropland; type: in vivo
[3] = test system: thylakoid membrane, electron transfer reaction of two photosystems, especially photosystem II; type: biochemical
[4] = test system: Striga hermonthica; settings: 10-4 mol/L; cited from earlier work

Structure (SMILES)	time to kill the weeds [1]	time to distinct toxic symptom ([2]; sprayed on the stems and leaves, 5 to 800 μg/g)	time to obvious injuried symptom ([2]; stem or leaf treatment) [h]	apparent quanta efficiency [3]	electron transfer reaction of two photosystems, especially photosystem II [3]	photosynthetic oxygen evolution rate [3]	inhibitory effect on the seed germination [4]	time to distinct toxic symptom ([2]; in vivo)	time to obvious injuried symptom ([2]; in vivo) [h]
O=C(O)CNCP(=O)(O)O [glyphosate]	at least 10 days								
CC(=O)C1=C(O)C(CC(C)C)NC1=O (stereo not shown) [iso-tenuazonic acid]		five	12	obviously reduce	inhibiting	obviously reduce	around 50%		
CCC(C)C1NC(=O)C(C(C)=O)=C1O (stereo not shown) [tenuazonic acid]				obviously reduce	inhibiting	obviously reduce	around 50%	five	12
